Experimental data as given in patent publication US12678509B2, “Inhibitor of apoptosis (IAP) protein antagonists” (Sanford Burnham Prebys Medical Discovery Institute, priority 2019, dated 2026).

Columns and labels:
SKOV-3 = assay: Cell viability (CellTiter-Glo), 48 hrs; type: cell-based; conditions: Homo sapiens, SK-OV-3, 48 h, read-out: SKOV-3 Viability 48 h IC50
Experimental: One thousand seven hundred cells per well were plated in a 384 well plate and incubated overnight at 37° C./5% CO2. The following day, compounds in 10-fold dilutions were added to the plates and the plates returned to the incubator for 48 hrs. 48 hrs later, plates were removed to the bench and 20 μL CellTiter-Glo reagent was added to each well and the plates were read for luminescence on a Spark® multimode microplate reader (Tecan). Data were fit using PRISM to a nonlinear regression curve to determine the IC50 of the compounds.

MOLM 13 = assay: Cell viability (CellTiter-Glo), 6-day compound treatment; type: cell-based, Human; conditions: Homo sapiens, MOLM-13, 144 h, read-out: MOLM 13 Viability 6 d IC50
Experimental: (§1) The compound 18a was tested in 16 different cell lines. For 6-day compound treatment 1700 cells per well were plated in a 384-well plate (Corning #781098) and incubated overnight at 37° C./5% CO2. The following day, compounds in 10-fold dilutions were added to the plates and the plates were incubated for 6 days. Afterwards, 20 μL CellTiter-Glo reagent (Promega, #G7570) was added to each well outside of the incubator and the plates were read for luminescence on a Spark® multimode microplate reader (Tecan). Data was fit in GraphPad Prism 8 to a nonlinear regression curve to determine the IC50 of the compounds. […]

ML-IAP = target: T1, ML-IAP (Homo sapiens, UniProt Q96CA5); assay: Fluorescence polarization assay; type: binding; conditions: SMAC-FITC probe, Ki calculated from IC50
T1 sequence (Q96CA5 1-298): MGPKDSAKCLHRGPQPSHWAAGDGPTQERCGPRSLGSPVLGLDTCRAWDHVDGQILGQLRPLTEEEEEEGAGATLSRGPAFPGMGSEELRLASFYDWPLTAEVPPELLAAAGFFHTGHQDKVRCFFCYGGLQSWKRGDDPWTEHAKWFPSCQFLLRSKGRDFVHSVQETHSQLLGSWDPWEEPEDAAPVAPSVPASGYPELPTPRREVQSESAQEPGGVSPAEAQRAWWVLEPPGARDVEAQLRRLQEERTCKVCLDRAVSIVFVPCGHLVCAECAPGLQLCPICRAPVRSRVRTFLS
Experimental: (§2) Binding of compounds to ML-IAP and BIR3 domain of cIAP1, cIAP2 and XIAP was determined by fluorescence polarization. Assay buffer was 100 mM KH2PO4 at pH 7.5, 50 μM ZnSO4, 1 mM TCEP (Tris(2-carboxyethyl)phosphine hydrochloride) and 50 nM SMAC-FITC probe (AbuRPF-K(5-Fam)-NH2) as described by Z. Nikolovska-Coleska et al.^9. cIAP1 and XIAP were present at 800 nM while cIAP2 and MLIAP were present at 1.5 μM. Compounds in 3-fold dilutions were added to the plates ranging from 30 μM to 1.5 nM. Assays were run in 384-well black plates read (Greiner Bio-One #784076) in an Analyst in fluorescence polarization mode with excitation at 485 nm and emission at 535 nm. Data was fit to a nonlinear regression curve in GraphPad Prism 8 to determine the IC50 values of the compounds. Ki's were then calculated from the IC50 values using equation: Ki=[I]50/([L]50/Kd+[P]0/Kd+1) formulated by Z. Nikolovska-Coleska et al.

BIR3 domain of cIAP1 = BIR3 domain of cIAP1 (Homo sapiens, UniProt Q13490); assay: Fluorescence polarization assay; type: binding; conditions: SMAC-FITC probe, Ki calculated from IC50
Experimental: as §2

BIR3 domain of cIAP2 = BIR3 domain of cIAP2 (Homo sapiens, UniProt Q13489); assay: Fluorescence polarization assay; type: binding; conditions: SMAC-FITC probe, Ki calculated from IC50
Experimental: as §2

BIR3 domain of XIAP = BIR3 domain of XIAP (Homo sapiens, UniProt P98170); assay: Fluorescence polarization assay; type: binding; conditions: SMAC-FITC probe, Ki calculated from IC50
Experimental: as §2

NB-4 = assay: Cell viability (CellTiter-Glo); type: cell-based, Human; conditions: Homo sapiens, NB-4, 72 h, read-out: NB-4 Viability 72 h IC50
Experimental: as §1, with “The following day, compounds in 10-fold dilutions were added to the plates and the plates were incubated for 6 days.” left out

[1] = test system: latently infected cell line Jurkat 2D10; assay: HIV Jurkat 2D10 cells GFP+ assay (reversal of HIV latency); type: cell-based; conditions: Homo sapiens, Jurkat, 48 h, read-out: Jurkat 2D10 GFP+ EC50
Experimental: Several compounds (Table 5) were tested for their efficacy in the reversal of HIV latency in the latently infected cell line Jurkat 2D10. Jurkat 2D10 cells were treated with different doses of the compounds, or one of the following compounds: BV-6, SM-164, Birinapant, LCL-161, GDC-0152, AT-406 for 48 hours. Reversal of HW latency was evaluated by analyzing GFP expression using flow cytometry. Induction of GFP expression was compared to baseline GFP levels detected in the absence of treatment.

[2] = Pharmacokinetic study in mice, snapshot PK; type: in vivo; conditions: female, C57BL/6J, mouse, plasma, ip, one hour after i.p. injection of 10 mg/kg
Experimental: All animal procedures were approved by the Sanford Burnham Prebys Medical Discovery Institute Institutional Animal Care and Use Committee and were performed according to the NIH guidelines for the Care and Use of Laboratory Animals. Adult female C57BL/6J were purchased from JAX laboratories and housed with free access to food and water on a 12 h light/dark cycle. Compounds were formulated in 5% DMSO, 10% Tween-80, and 85% dH2O and injected intraperitoneally (i.p.) into mice at doses of 10 mg/kg. For snapshot PK analysis, blood samples were collected retro-orbitally one hour after injection and for the time course PK study, blood samples were collected at 15 min, 30 min, 1 h, 2 h, 4 h, 6 h, 24 h time points. For the blood samples plasma was separated by centrifugation. Plasma samples were extracted with acetonitrile:water 4:1 with 0.1% formic acid containing indometacin as an internal standard. Samples were centrifuged and supernatants were diluted with acetonitrile:water and analyzed via LC-MS/MS on a Shimadzu Nexera X2 HPLC coupled to an AB Sciex 6500 QTRAP.
Plasma exposure of selected compounds at 1 h compared.
Plasma levels of parent compound determined one hour after i.p. injection of 10 mg/kg

AML-SH-074 = assay: Cell viability in patient derived AML samples (CellTiterGlo, 72 h); type: cell-based, human; conditions: for IC50: Homo sapiens, 72 h, read-out: AML-SH-074 IC50; for AML-SH-074 Efficacy: patient derived AML sample AML-SH-074, 72 h, cell viability at max. concentration
Experimental: (§3) Patient AML samples were gathered (under IRB 13-6180) from Scripps MD Anderson, La Jolla, CA Fresh blood samples were subjected to gradient density centrifugation with Ficoll-Paque™ PLUS (17-1440-02, GE Healthcare) and peripheral blood mononuclear cells purified as per manufacturer's protocol.
(§4) 75 nL of 1000× serially diluted IAP inhibitors were spotted in triplicate onto 384-well tissue culture treated plates (Greiner) using a Labcyte Echo acoustic dispensing device. Patient-derived AML cells were maintained in mTeSR1^+1× supplements (Stemcell Technologies) and penicillin/streptomycin/L-glutamine (Omega Scientific Inc.) and Fungizone (HyClone). 25 μL of cell dilution were plated into 384-well plate containing the drugs and incubated for 72 h. Cell viability was assessed by adding 25 μL CellTiterGlo (Promega Corp.) on a Synergy 2 plate reader with Gen5 software (Biotek). % viability was calculated by normalizing luminescence to vehicle only controls (DMSO) in Microsoft Excel and plotted using GraphPad Prism 8. The IC50 values were calculated using log(inhibitor) vs. response—Variable slope (four parameters) equation. (FIG. 6)

AML-SH-065 = assay: as above; type: cell-based, human; conditions: for IC50: Homo sapiens, 72 h, read-out: AML-SH-065 IC50; for AML-SH-065 Efficacy: patient derived AML sample AML-SH-065, 72 h, cell viability at max. concentration
Experimental: as §3, §4

AML-SH-075 = assay: as above; type: cell-based, human; conditions: for IC50: Homo sapiens, 72 h, read-out: AML-SH-075 IC50; for AML-SH-075 Efficacy: patient derived AML sample AML-SH-075, 72 h, cell viability at max. concentration
Experimental: as §3, §4

Sequence of BIR3 domain of XIAP (P98170 241-356 limits assumed): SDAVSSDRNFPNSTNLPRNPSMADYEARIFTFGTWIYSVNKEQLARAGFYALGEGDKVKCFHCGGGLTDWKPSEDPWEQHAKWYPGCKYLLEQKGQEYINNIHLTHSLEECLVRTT
Sequence of BIR3 domain of cIAP2 (Q13489 238-349 limits assumed): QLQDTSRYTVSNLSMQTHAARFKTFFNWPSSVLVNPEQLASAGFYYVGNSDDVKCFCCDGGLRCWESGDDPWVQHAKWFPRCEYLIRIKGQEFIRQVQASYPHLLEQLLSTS
Sequence of BIR3 domain of cIAP1 (Q13490 253-363 limits assumed): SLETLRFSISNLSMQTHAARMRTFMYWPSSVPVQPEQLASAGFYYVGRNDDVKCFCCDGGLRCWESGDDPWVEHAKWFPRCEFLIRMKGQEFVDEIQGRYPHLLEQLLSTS

Structure (SMILES)	IC50 (SKOV-3) [nM]	IC50 (MOLM 13) [nM]	Ki (ML-IAP) [nM]	Ki (BIR3 domain of cIAP1) [nM]	Ki (BIR3 domain of cIAP2) [nM]	Ki (BIR3 domain of XIAP) [nM]	IC50 (NB-4) [nM]	EC50 [1] [nM]	concentration at 1 h [2] [nM]	IC50 (AML-SH-074) [nM]	AML-SH-074 Efficacy (AML-SH-074)	IC50 (AML-SH-065) [nM]	AML-SH-065 Efficacy (AML-SH-065)	IC50 (AML-SH-075) [nM]	AML-SH-075 Efficacy (AML-SH-075)
CN[C@@H](C)C(=O)N[C@H]1CCS[C@H]2CC(C)(C)[C@@H](C(=O)N[C@H]3c4ccccc4C[C@H]3OCCCCCCO[C@@H]3Cc4ccccc4[C@@H]3NC(=O)[C@H]3N4C(=O)[C@@H](NC(=O)[C@H](C)NC)CCS[C@H]4CC3(C)C)N2C1=O [Compound 18b, (2S)-1-{[(4S,7S,9aS)-7-({(1S,2R)-2-[(6-{[(1S,2R)-1-({[(4S,7S,9aS)-8,8-Dimethyl-4-{[(2S)-2-(methylammonio)propanoyl]amino}-5-oxooctahydropyrrolo[2,1-b][1,3]thiazepin-7-yl]carbonyl}amino)-2,3-dihydro-1H-inden-2-yl]oxy}hexyl)oxy]-2,3-dihydro-1H-inden-1-yl}carbamoyl)-8,8-dimethyl-5-oxooctahydropyrrolo[2,1-b][1,3]thiazepin-4-yl]amino}-N-methyl-1-oxopropan-2-ammonium dichloride]	< 10	100 to 1000	50 to 100	≤ 50	50 to 100	≤ 50	< 10	1 to 10	714						
CN[C@@H](C)C(=O)N[C@H]1CCS[C@H]2CC(C)(C)[C@@H](C(=O)N[C@H]3c4ccccc4C[C@H]3OCC#Cc3ccc(C#CCO[C@@H]4Cc5ccccc5[C@@H]4NC(=O)[C@H]4N5C(=O)[C@@H](NC(=O)[C@H](C)NC)CCS[C@H]5CC4(C)C)cc3)N2C1=O [Compound 18c]	< 10	10 to 100	50 to 100	≤ 50	50 to 100	≤ 50	< 10	1 to 10	1310	100 to 1000	I (I < 10%)	10 to 100	I (I < 10%)	1000 to 10000	I (I < 10%)
CN[C@@H](C)C(=O)N[C@H]1CCS[C@H]2CC(C)(C)[C@@H](C(=O)N[C@H](CCOCC#CC#CCOCC[C@@H](NC(=O)[C@H]3N4C(=O)[C@@H](NC(=O)[C@H](C)NC)CCS[C@H]4CC3(C)C)c3ccccc3)c3ccccc3)N2C1=O [Compound 18i, (2S)-1-{[(4S,7S,9aS)-74{(1R)-3-[(6-{[(3R)-3-({[(4S,7S,9aS)-8,8-Dimethyl-4-{[(2S)-2-(methylammonio)propanoyl]amino}-5-oxooctahydropyrrolo[2,1-b][1,3]thiazepin-7-yl]carbonyl}amino)-3-phenylpropyl]oxy}hexa-2,4-diyn-1-yl)oxy]-1-phenylpropyl}carbamoyl)-8,8-dimethyl-5-oxooctahydropyrrolo[2,1-b][1,3]thiazepin-4-yl]amino}-N-methyl-1-oxopropan-2-ammonium dichloride]	< 10	100 to 1000	50 to 100	≤ 50	50 to 100	50 to 100	< 10	10 to 100	1240						
CN[C@@H](C)C(=O)N[C@H]1CCS[C@H]2CC3(CC=CC3)[C@@H](C(=O)N[C@H]3c4ccccc4C[C@H]3OCC#CC#CCO[C@@H]3Cc4ccccc4[C@@H]3NC(=O)[C@H]3N4C(=O)[C@@H](NC(=O)[C@H](C)NC)CCS[C@H]4CC34CC=CC4)N2C1=O [Compound 18o]	< 10	10 to 100	100 to 200	≤ 50	50 to 100	≤ 50		1 to 10	5180						
CN[C@@H](C)C(=O)N[C@H]1CCO[C@H]2CC(C)(C)[C@@H](C(=O)N[C@H]3c4ccccc4C[C@H]3OCC#CC#CCO[C@@H]3Cc4ccccc4[C@@H]3NC(=O)[C@H]3N4C(=O)[C@@H](NC(=O)[C@H](C)NC)CCO[C@H]4CC3(C)C)N2C1=O [Compound 18q, [(1S)-1-{[(4S,7S,9aS)-7-{[(1S,2R)-2-[(6-{[(1S,2R)-1-[(4S,7S,9aS)-8,8-Dimethyl-4-[(2S)-2-(methylazaniumyl)propanamido]-5-oxo-octahydropyrrolo[2,1-b][1,3]oxazepine-7-amido]-2,3-dihydro-1H-inden-2-yl]oxy}hexa-2,4-diyn-1-yl)oxy]-2,3-dihydro-1H-inden-1-yl]carbamoyl}-8,8-dimethyl-5-oxo-octahydropyrrolo[2,1-b][1,3]oxazepin-4-yl]carbamoyl}ethyl](methyl)azanium dichloride]	< 10	10 to 100	50 to 100	50 to 100	50 to 100	≤ 50		100 to 1000	1870	100 to 1000	I (I < 10%)	10 to 100	I (I < 10%)	10 to 100	I (I < 10%)
